These results are taken from PMC5919688, “Cyclic di-AMP regulation of osmotic homeostasis is essential in Group B Streptococcus” (PLoS Genetics, 2018).

Series [1] deals with T1, BusR (rBusR) (Streptococcus agalactiae NEM316), ORF:6b20ee22.
T1 sequence: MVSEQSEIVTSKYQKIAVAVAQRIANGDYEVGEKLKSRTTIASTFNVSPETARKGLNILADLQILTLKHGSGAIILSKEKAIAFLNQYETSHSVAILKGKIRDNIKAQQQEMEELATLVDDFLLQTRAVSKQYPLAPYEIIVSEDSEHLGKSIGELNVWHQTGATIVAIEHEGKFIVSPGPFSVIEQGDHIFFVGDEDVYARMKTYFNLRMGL
The series is described as follows: EMSA. To be noted: 25 mM Na2HPO4/NaH2PO4 pH 8, 50 mM NaCl, 2 mM MgCl2, 1 mM DTT, 10% glycerol, 0.1 ug/ul poly(dI-dC), 0.02 ug/ul BSA, 20 min room temperature; 6% PAGE at 4 C.

In a further series the target is T2, KtrA (Gbs1678) (Streptococcus agalactiae, UniProt Q8E3S8).
T2 construct: full length, N-terminal His or His-MBP tag, expressed in E. coli Bli5, whole-cell extract
T2 sequence (Q8E3S8 1-223): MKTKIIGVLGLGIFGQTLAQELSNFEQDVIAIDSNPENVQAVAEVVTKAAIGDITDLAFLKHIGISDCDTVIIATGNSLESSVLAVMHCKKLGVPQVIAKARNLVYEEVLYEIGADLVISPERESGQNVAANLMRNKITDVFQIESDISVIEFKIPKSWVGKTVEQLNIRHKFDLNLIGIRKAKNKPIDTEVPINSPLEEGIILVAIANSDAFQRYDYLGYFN
Nature of the series: DRaCALA, […]-labelled c-di-AMP, whole E. coli extract. To be noted: […]P-c-di-AMP, […] Tris pH […] NaCl, […] MgCl2, room temperature; labelled compound; competition with […] cold nucleotide. The series is classed as binding.

Another series has as its target T3, OpuCA (Gbs0235) (Streptococcus agalactiae, UniProt Q8E7C0).
T3 construct: full length, N-terminal His-MBP tag (signal only with this tag), expressed in E. coli Bli5, whole-cell extract
T3 sequence (Q8E7C0 1-381): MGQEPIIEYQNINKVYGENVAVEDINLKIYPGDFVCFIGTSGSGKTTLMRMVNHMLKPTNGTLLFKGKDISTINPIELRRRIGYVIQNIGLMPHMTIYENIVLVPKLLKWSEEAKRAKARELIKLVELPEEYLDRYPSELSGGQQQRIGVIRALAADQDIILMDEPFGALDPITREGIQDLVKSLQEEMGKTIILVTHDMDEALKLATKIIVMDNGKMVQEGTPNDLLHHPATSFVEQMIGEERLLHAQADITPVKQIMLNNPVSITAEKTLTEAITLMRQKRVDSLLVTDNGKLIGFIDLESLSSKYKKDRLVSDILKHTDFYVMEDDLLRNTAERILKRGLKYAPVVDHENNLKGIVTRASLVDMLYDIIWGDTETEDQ
The series is described as above. It is filed as binding. Particulars: […]P-c-di-AMP, […] Tris pH […] NaCl, […] MgCl2, room temperature; labelled compound; competition with […] cold nucleotide.

The target of another series is T4, TrkH (Gbs1639) (Streptococcus agalactiae, UniProt Q8DYA0).
T4 construct: gene SAG1590; full length, N-terminal His tag (detected by Western only with the His tag), expressed in E. coli Bli5, whole-cell extract
T4 sequence (Q8DYA0 1-449): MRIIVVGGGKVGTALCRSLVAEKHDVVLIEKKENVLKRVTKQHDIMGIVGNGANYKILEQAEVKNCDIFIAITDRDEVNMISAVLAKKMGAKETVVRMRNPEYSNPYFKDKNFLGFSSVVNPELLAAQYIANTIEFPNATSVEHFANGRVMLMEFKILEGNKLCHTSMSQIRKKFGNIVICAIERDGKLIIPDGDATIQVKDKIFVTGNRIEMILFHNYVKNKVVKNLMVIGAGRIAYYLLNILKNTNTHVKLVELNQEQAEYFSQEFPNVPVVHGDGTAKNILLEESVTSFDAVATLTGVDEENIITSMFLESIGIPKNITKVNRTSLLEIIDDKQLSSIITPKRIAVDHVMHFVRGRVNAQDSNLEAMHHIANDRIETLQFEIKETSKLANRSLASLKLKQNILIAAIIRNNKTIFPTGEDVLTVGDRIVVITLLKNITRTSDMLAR
Described as above. It is filed as binding. To be noted: 1 nM 32P-c-di-AMP, 40 mM Tris pH 7.5, 100 mM NaCl, 10 mM MgCl2, room temperature; labelled compound; competition with 200 uM cold nucleotide.

In another series the target is T5, DacA (rDacA) (Streptococcus agalactiae, UniProt Q8E051).
T5 construct: amino acids 96-243, transmembrane domain deleted, N-terminal 6xHis (pET28a), E. coli Bli5, purified
T5 sequence (Q8E051 96-243): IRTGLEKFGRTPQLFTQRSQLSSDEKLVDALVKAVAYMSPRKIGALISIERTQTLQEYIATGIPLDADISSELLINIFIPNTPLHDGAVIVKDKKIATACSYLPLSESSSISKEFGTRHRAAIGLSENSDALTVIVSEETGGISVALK
Nature of the series: RP-HPLC of c-di-AMP formation. The series is classed as biochemical. To be noted: 2.5 uM rDacA, 1 mM ATP, 50 mM Tris pH 8.5, 100 mM NaCl, 10 mM MnCl2, 37 C.

Another series deals with T6, BusR (Gbs1201) (Streptococcus agalactiae, UniProt I7JWA3).
T6 construct: gene BM110_ORF1201; full length (213 aa), N-terminal His or His-MBP tag, expressed in E. coli Bli5, whole-cell extract
T6 sequence (I7JWA3 1-213): T1 sequence
Nature of the series: DRaCALA, […]-labelled c-di-AMP, whole E. coli extract. To be noted: 1 nM 32P-c-di-AMP, 40 mM Tris pH 7.5, 100 mM NaCl, 10 mM MgCl2, room temperature; labelled compound; competition with 200 uM cold nucleotide. The series is classed as binding.

For “AGTTGTAATATTAATACTAATAAGTCTTTAAATAATTCAATAATGCCATAACAATAATGGTGTGGGCTAATTAAAATATCTCTAAGCAAAGGTGTTGACATAAAGAGACCATACATGATATTATAGTTATGTTCTGTTTCGGCAGTTTATTTTTTTGAGTAAAAAAGTGACTACCCTTTTACGATACTTTAACGTCACTTTATAGATAAGACACATAACCTTAAAAATAAGATACGAAATT (double strand) [PbusAB EMSA fragment (245 bp)]”, the binding result in series [1] is “binds”.

Consider `Nc1ncnc2c1ncn2[C@@H]1O[C@@H]2COP(=O)(O)O[C@H]3[C@@H](O)[C@H](n4cnc5c(N)ncnc54)O[C@@H]3COP(=O)(O)O[C@H]2[C@H]1O` [c-di-AMP], for which the “DRaCALA, 32P-labelled c-di-AMP, whole E. coli extract” value at KtrA (Gbs1678) is “C-di-AMP binds to four proteins: KtrA (Gbs1678)”; on OpuCA (Gbs0235), “C-di-AMP binds to four proteins: KtrA (Gbs1678), TrkH (Gbs1639), OpuCA (Gbs0235)”; on TrkH (Gbs1639) it was “C-di-AMP binds to four proteins: KtrA (Gbs1678), TrkH (Gbs1639)”; at BusR (Gbs1201) it was “C-di-AMP binds to four proteins: KtrA (Gbs1678), TrkH (Gbs1639), OpuCA (Gbs0235) and Gbs1201”. Further, the “RP-HPLC of c-di-AMP formation” value on DacA (rDacA) is on record as “the purified recombinant DacA protein produces c-di-AMP from two molecules of ATP”.

Take `Nc1ncnc2c1ncn2[C@@H]1O[C@H](COP(=O)(O)OP(=O)(O)OP(=O)(O)O)[C@@H](O)[C@H]1O` [ATP]: the “RP-HPLC of c-di-AMP formation” value at DacA (rDacA) is reported as “the purified recombinant DacA protein produces c-di-AMP from two molecules of ATP”.
